# Experimental data: PubChem BioAssay (NCI)
#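 Protocol summary: plate cells (96-well), add compound at 5 concentrations, incubate 48 h, interpolate endpoints linearly. Abbreviation: GI50, concentration required for 50% inhibition of growth. TGI: total growth inhibition.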
# Experiments:
# Test in all cases: inhibition of tumour cell growth, NCI panel, 48 h
# 786-0 renal = test system: 786-0 renal
# A549 NSCLC = test system: A549 NSCLC
# ACHN renal = test system: ACHN renal
# BT-549 breast = test system: BT-549 breast
# CAKI-1 renal = test system: CAKI-1 renal
# COLO 205 colon = test system: COLO 205 colon
# DU-145 prostate = test system: DU-145 prostate
# EKVX NSCLC = test system: EKVX NSCLC
# HCC-2998 colon = test system: HCC-2998 colon
# HCT-116 colon = test system: HCT-116 colon
# HCT-15 colon = test system: HCT-15 colon
# HL-60(TB) leukemia = test system: HL-60(TB) leukemia
# HOP-62 NSCLC = test system: HOP-62 NSCLC
# HOP-92 NSCLC = test system: HOP-92 NSCLC
# HS 578T breast = test system: HS 578T breast
# IGROV1 ovarian = test system: IGROV1 ovarian
# K-562 leukemia = test system: K-562 leukemia
# KM12 colon = test system: KM12 colon
# LOX IMVI melanoma = test system: LOX IMVI melanoma
# M14 melanoma = test system: M14 melanoma
# MCF7 breast = test system: MCF7 breast
# MDA-MB-231 breast = test system: MDA-MB-231 breast
# MDA-MB-435 = test system: MDA-MB-435
# NCI-H23 lung = test system: NCI-H23 lung
# NCI-H460 lung = test system: NCI-H460 lung
# NCI-H522 lung = test system: NCI-H522 lung
# NCI/ADR-RES ovarian = test system: NCI/ADR-RES ovarian
# OVCAR-3 ovarian = test system: OVCAR-3 ovarian
# OVCAR-4 ovarian = test system: OVCAR-4 ovarian
# OVCAR-5 ovarian = test system: OVCAR-5 ovarian
# OVCAR-8 ovarian = test system: OVCAR-8 ovarian
# PC-3 prostate = test system: PC-3 prostate
# RPMI-8226 leukemia = test system: RPMI-8226 leukemia
# RXF 393 renal = test system: RXF 393 renal
# SF-268 CNS = test system: SF-268 CNS
# SF-295 CNS = test system: SF-295 CNS
# SF-539 CNS = test system: SF-539 CNS
# SK-MEL-2 melanoma = test system: SK-MEL-2 melanoma
# SK-MEL-28 melanoma = test system: SK-MEL-28 melanoma
# SK-MEL-5 melanoma = test system: SK-MEL-5 melanoma
# SK-OV-3 ovarian = test system: SK-OV-3 ovarian
# SN12C renal = test system: SN12C renal
# SNB-19 CNS = test system: SNB-19 CNS
# SR leukemia = test system: SR leukemia
# SW-620 colon = test system: SW-620 colon
# T-47D breast = test system: T-47D breast
# TK-10 renal = test system: TK-10 renal
# U251 CNS = test system: U251 CNS
# UACC-257 melanoma = test system: UACC-257 melanoma
# UACC-62 melanoma = test system: UACC-62 melanoma
# UO-31 renal = test system: UO-31 renal
smiles,measurement,setting,value
Oc1ccc(Nc2nc3ccccc3c3occc23)cc1,GI50,786-0 renal,12.2 µM
same,TGI,786-0 renal,26.8 µM
same,GI50,A549 NSCLC,14.4 µM
same,TGI,A549 NSCLC,52.1 µM
same,GI50,ACHN renal,4.54 µM
same,TGI,ACHN renal,29.4 µM
same,GI50,BT-549 breast,6.72 µM
same,TGI,BT-549 breast,34.6 µM
same,GI50,CAKI-1 renal,12.1 µM
same,TGI,CAKI-1 renal,28.1 µM
same,GI50,COLO 205 colon,18.9 µM
same,TGI,COLO 205 colon,50.1 µM
same,GI50,DU-145 prostate,11.3 µM
same,TGI,DU-145 prostate,23.4 µM
same,GI50,EKVX NSCLC,14.5 µM
same,TGI,EKVX NSCLC,39.2 µM
same,GI50,HCC-2998 colon,11.4 µM
same,TGI,HCC-2998 colon,23.7 µM
same,GI50,HCT-116 colon,16.3 µM
same,TGI,HCT-116 colon,34.5 µM
same,GI50,HCT-15 colon,14.3 µM
same,TGI,HCT-15 colon,40.5 µM
same,GI50,HL-60(TB) leukemia,10.2 µM
same,TGI,HL-60(TB) leukemia,> 100 µM
same,GI50,HOP-62 NSCLC,16.9 µM
same,TGI,HOP-62 NSCLC,> 100 µM
same,GI50,HOP-92 NSCLC,13.9 µM
same,TGI,HOP-92 NSCLC,32 µM
same,GI50,HS 578T breast,16.5 µM
same,TGI,HS 578T breast,45.4 µM
same,GI50,IGROV1 ovarian,2.93 µM
same,TGI,IGROV1 ovarian,23.5 µM
same,GI50,K-562 leukemia,9.84 µM
same,TGI,K-562 leukemia,> 100 µM
same,GI50,KM12 colon,15.5 µM
same,TGI,KM12 colon,38.6 µM
same,GI50,LOX IMVI melanoma,2.21 µM
same,TGI,LOX IMVI melanoma,15.9 µM
same,GI50,M14 melanoma,14.2 µM
same,TGI,M14 melanoma,34.6 µM
same,GI50,MCF7 breast,11.5 µM
same,TGI,MCF7 breast,44.4 µM
same,GI50,MDA-MB-231 breast,5.34 µM
same,TGI,MDA-MB-231 breast,25.7 µM
same,GI50,MDA-MB-435,9.77 µM
same,TGI,MDA-MB-435,21.6 µM
same,GI50,NCI-H23 lung,12.4 µM
same,TGI,NCI-H23 lung,28.5 µM
same,GI50,NCI-H460 lung,12.6 µM
same,TGI,NCI-H460 lung,36.1 µM
same,GI50,NCI-H522 lung,9.03 µM
same,TGI,NCI-H522 lung,26.1 µM
same,GI50,NCI/ADR-RES ovarian,16.2 µM
same,TGI,NCI/ADR-RES ovarian,31.5 µM
same,GI50,OVCAR-3 ovarian,5.8 µM
same,TGI,OVCAR-3 ovarian,22.8 µM
same,GI50,OVCAR-4 ovarian,12.3 µM
same,TGI,OVCAR-4 ovarian,98.9 µM
same,GI50,OVCAR-5 ovarian,15.6 µM
same,TGI,OVCAR-5 ovarian,38.3 µM
same,GI50,OVCAR-8 ovarian,17.1 µM
same,TGI,OVCAR-8 ovarian,58.8 µM
same,GI50,PC-3 prostate,16.1 µM
same,TGI,PC-3 prostate,66.4 µM
same,GI50,RPMI-8226 leukemia,7.63 µM
same,TGI,RPMI-8226 leukemia,72.6 µM
same,GI50,RXF 393 renal,11.3 µM
same,TGI,RXF 393 renal,41.3 µM
same,GI50,SF-268 CNS,11.4 µM
same,TGI,SF-268 CNS,31.6 µM
same,GI50,SF-295 CNS,11 µM
same,TGI,SF-295 CNS,23.9 µM
same,GI50,SF-539 CNS,16.5 µM
same,TGI,SF-539 CNS,33.7 µM
same,GI50,SK-MEL-2 melanoma,18.2 µM
same,TGI,SK-MEL-2 melanoma,42.1 µM
same,GI50,SK-MEL-28 melanoma,17.6 µM
same,TGI,SK-MEL-28 melanoma,45.6 µM
same,GI50,SK-MEL-5 melanoma,8.15 µM
same,TGI,SK-MEL-5 melanoma,21.9 µM
same,GI50,SK-OV-3 ovarian,16.2 µM
same,TGI,SK-OV-3 ovarian,33.7 µM
same,GI50,SN12C renal,12.2 µM
same,TGI,SN12C renal,26.5 µM
same,GI50,SNB-19 CNS,17.2 µM
same,TGI,SNB-19 CNS,50.5 µM
same,GI50,SR leukemia,31.4 µM
same,TGI,SR leukemia,> 100 µM
same,GI50,SW-620 colon,19.7 µM
same,TGI,SW-620 colon,50.5 µM
same,GI50,T-47D breast,17 µM
same,TGI,T-47D breast,51.2 µM
same,GI50,TK-10 renal,13 µM
same,TGI,TK-10 renal,27.1 µM
same,GI50,U251 CNS,11.3 µM
same,TGI,U251 CNS,26.1 µM
same,GI50,UACC-257 melanoma,12.9 µM
same,TGI,UACC-257 melanoma,30.7 µM
same,GI50,UACC-62 melanoma,11.7 µM
same,TGI,UACC-62 melanoma,23.9 µM
same,GI50,UO-31 renal,10.1 µM
same,TGI,UO-31 renal,33.3 µM
